According to patent US11364244B2, “Compositions for treatment of muscular disorders” (ONCOCROSS CO., LTD., priority 2018, dated 2022):

Experiments:
[1] = tested on: mice transplanted with colorectal cancer cells CT26; assay: Cancer-associated muscle and fat reduction (CT26 transplant + 5-FU, MRI); format: in vivo, mouse; details: for fat mass / muscle mass: CT26 + 5-FU mice, treated alone or in combination, MRI every week
Description: Cancer-associated sarcopenia was induced by administering 5-FU (5-fluorouracil) as an anticancer agent to mice transplanted with colorectal cancer cells CT26. […] MRI was measured every week to determine muscle and fat changes in OC-501 and 504 alone and combination-treated groups (FIG. 19).

[2] = tested on: tibialis anterior muscle of the mouse; assay: Early recovery of muscle fibers after cardiotoxin injury; format: in vivo; details: alone 30 mpk, combination each 15 or 30 mpk, 3 days after cardiotoxin
[3] = tested on: Mouse myoblast strain C2C12; assay: Myoblast differentiation (microscope; Western blot of myogenin and MHC); format: cell-based; details: for differentiation of myoblast (microscope): single component 500 nM up to 10 or 20 μM, 400 μM H2O2, 2% horse serum, 5 to 7 days
Description: (§1) Mouse myoblast strain C2C12 was dispensed into 12-well plates at 0.7×10^5 cells/well and then cultured to a cell density of 70 to 80%. […] Differentiation of the myoblast was induced for 5 to 7 days while the replacement of the medium occurred every other day. After the differentiation, cells were identified using a microscope (4× and 10× magnification), and cells were disrupted and then Western blot analysis was performed using differentiation markers myogenin and myosin heavy chain (MHC) antibodies.
(§2) Mouse myoblast strain C2C12 was dispensed into 12-well plates at 0.7×10^5 cells/well and then cultured to a cell density of 70 to 80%. The cells were then washed with PBS and then the medium was replaced with DMEM medium (differentiation medium) containing 2% horse serum, 400 μM H2O2, and harmol (OC-503) of 0 nM (DMSO), 500 nM, 1 μM, 2.5 μM, 5 μM, or 10 μM respectively. Differentiation of the myoblast was induced for 5 to 7 days while the replacement of the medium occurred every other day. After the differentiation, cells were identified using a microscope, and cells were disrupted, and then Western blot analysis was performed using differentiation markers myogenin and myosin heavy chain (MHC) antibodies.
as §2, with “H2O2, and calcium pantothenate (OC-504) of 0” for “H2O2, and harmol (OC-503) of 0”, “500 nM, 2.5 μM,” for “500 nM, 1 μM, 2.5 μM,”, “5 μM, 10 μM or 20” for “5 μM, or 10”, “μM or 20 μM respectively.” for “μM, or 10 μM respectively.”, “using a microscope (4× and 10× magnification), and cells” for “using a microscope, and cells”
as §1, with “disrupted,” for “disrupted”

[4] = tested on: Mesenchymal stem cells; assay: Differentiation markers PAX7/MYF5 (Western blot) in stem cells isolated from cobratoxin-injured muscle; format: cell-based, mouse; details: OC-501 10 μM, OC-504 5 μM, individually or in combination; 4 days after the application
Description: Mesenchymal stem cells were isolated on day 3 after cobratoxin was inserted into the tibialis anterior muscle of the mouse. […] West blot analysis was performed using differentiation markers PAX7 (paired box protein-7) and MYF5 (Myogenic factor 5) antibodies. After the differentiation, cells were identified using a microscope (4× and 10× magnification).

[5] = tested on: Mouse myoblast strain C2C12; assay: Myoblast proliferation (MTT, OD 595 nm) under H2O2; format: cell-based; details: single component 250 nM-20 μM, 400 nM H2O2, 16 hours
Description: Mouse myoblast strain C2C12 was dispensed in 96-well plates at 1.5×10^3 cells/well, and then cultured in DMEM medium containing 10% fetal bovine serum (FBS) at 37° C. and 5% CO2 for one day at a low density manner. […] At 16 hours since the replacement, the wells were treated with MTT reagent and then the mouse myoblast strain C2C12 was incubated in the DMEM medium in a dark incubator for 3 hours. After removing supernatant therefrom and applying 100 μl of DMSO to the well, the optical density (OD) was measured at 595 nm. Cells were identified using a microscope.

[6] = anticancer drug administered to CT26-transplanted mice, MRI

Molecule | fat decrease [1, 6] | muscle amount decrease [1, 6] | fat mass [1] | muscle mass [1] | muscle fiber size [2] | differentiation of myoblast (microscope) [3] | differentiation promotion (Western blot myogenin and MHC) ([3]; single component at 5 μM) | differentiation promotion (Western blot myogenin and MHC) ([3]; single component at 10 μM) | expression of PAX7 [4] | myoblast proliferation [5]
O=c1[nH]cc(F)c(=O)[nH]1 [5-FU, 5-fluorouracil] | 95% | about 40% |  |  |  |  |  |  |  | 
CC(C)(CO)[C@@H](O)C(=O)NCCC(=O)O [calcium pantothenate] |  |  | increased | increased | well sparred | promoted differentiation of myoblast | increased especially | increased especially | increased | not to promote myoblast proliferation
CN(C)CCOC(c1ccccc1)c1ccccc1.Cn1c(=O)c2[nH]c(Cl)nc2n(C)c1=O [dimenhydrinate] |  |  | increased | increased | well sparred |  | increased especially |  |  | 
harmol |  |  |  |  |  | promoted differentiation of myoblast | increased especially | increased especially |  | not to promote myoblast proliferation
